This note sets out measurements from ChEMBL document CHEMBL4270496, “How to train your inhibitor: Design strategies to overcome resistance to Epidermal Growth Factor Receptor inhibitors” (Eur J Med Chem, 2017).

The structures appear in SMILES notation.

Data set [1] concerns NCI-H1975. The data set can be described thus: Antiproliferative activity against human NCI-H1975 cells expressing EGFR T790M/L858R mutant. The data set is classed as functional, cell-based.
Data set [2] has as its target T1, Epidermal growth factor receptor (Homo sapiens, UniProt P00533). Put plainly: Inhibition of EGFR (unknown origin).
The subject of data set [3] is MCF7. The data set can be described thus: Antiproliferative activity against human MCF7 cells expressing wild type HER2. It is filed as functional, cell-based.
Data set [4] has as its system A-431. The data set can be described thus: Antiproliferative activity against human A431 cells expressing wild type EGFR. The data set is classed as functional, cell-based.
In data set [5] the target is Epidermal growth factor receptor (Homo sapiens, UniProt P00533, T790M/L858R). Put plainly: Inhibition of EGFR T790M/L858R mutant (unknown origin).
The target in data set [6] is T2, Receptor tyrosine-protein kinase erbB-2 (Homo sapiens, UniProt P04626). Put plainly: Inhibition of HER2 (unknown origin).
T2 sequence (P04626 whole entry): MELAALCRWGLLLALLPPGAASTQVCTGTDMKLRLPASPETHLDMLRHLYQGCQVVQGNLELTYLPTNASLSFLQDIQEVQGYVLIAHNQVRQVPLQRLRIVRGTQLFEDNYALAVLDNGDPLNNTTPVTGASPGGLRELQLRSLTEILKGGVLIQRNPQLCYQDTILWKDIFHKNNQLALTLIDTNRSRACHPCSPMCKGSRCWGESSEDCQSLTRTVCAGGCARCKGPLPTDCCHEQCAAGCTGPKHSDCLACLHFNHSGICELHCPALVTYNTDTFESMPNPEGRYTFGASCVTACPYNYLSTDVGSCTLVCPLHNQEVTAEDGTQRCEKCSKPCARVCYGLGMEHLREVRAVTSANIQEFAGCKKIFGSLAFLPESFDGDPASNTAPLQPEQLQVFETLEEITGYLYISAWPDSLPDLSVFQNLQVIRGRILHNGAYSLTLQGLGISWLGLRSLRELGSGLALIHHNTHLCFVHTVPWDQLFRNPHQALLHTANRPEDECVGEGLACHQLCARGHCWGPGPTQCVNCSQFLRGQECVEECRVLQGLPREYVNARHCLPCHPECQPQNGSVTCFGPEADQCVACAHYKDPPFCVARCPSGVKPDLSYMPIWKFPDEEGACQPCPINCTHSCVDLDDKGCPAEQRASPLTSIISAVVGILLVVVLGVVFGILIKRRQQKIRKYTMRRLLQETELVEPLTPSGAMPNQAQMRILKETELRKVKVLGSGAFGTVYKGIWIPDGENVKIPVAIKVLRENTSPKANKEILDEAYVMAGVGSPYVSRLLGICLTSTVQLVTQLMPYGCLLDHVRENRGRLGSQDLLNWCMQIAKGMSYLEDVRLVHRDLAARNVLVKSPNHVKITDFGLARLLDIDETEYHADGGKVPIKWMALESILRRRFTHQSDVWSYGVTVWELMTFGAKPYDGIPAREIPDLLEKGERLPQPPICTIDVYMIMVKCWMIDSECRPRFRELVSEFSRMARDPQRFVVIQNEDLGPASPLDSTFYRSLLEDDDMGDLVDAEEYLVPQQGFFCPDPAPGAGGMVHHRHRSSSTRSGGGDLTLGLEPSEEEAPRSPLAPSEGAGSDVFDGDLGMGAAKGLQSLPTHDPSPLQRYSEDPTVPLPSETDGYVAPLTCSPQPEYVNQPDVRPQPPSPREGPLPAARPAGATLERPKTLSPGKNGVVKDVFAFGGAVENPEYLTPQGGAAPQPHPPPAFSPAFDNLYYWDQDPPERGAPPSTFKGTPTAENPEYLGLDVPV
For data set [7], the system named is A-431. Put plainly: Antiproliferative activity against human A431 cells expressing wild type EGFR incubated for 72 hrs by MTS assay. It is filed as functional, cell-based. The conditions noted are these: A-431, 72 h. In general terms: Tetrazolium assays rely on reduction of a dye to a coloured formazan, in cell work by metabolically active cells.
Data set [8] addresses T2, Receptor tyrosine-protein kinase erbB-2. The data set can be described thus: Inhibition of GST-tagged human HER2 catalytic domain expressed in insect cells.
Data set [9] in a line: Antiproliferative activity against human HS27 cells expressing wild type HER2 incubated for 72 hrs by MTS assay. The data set is classed as cell-based.
The subject of data set [10] is NCI-H1975. The data set can be described thus: Antiproliferative activity against human NCI-H1975 cells expressing EGFR T790M/L858R mutant incubated for 72 hrs by MTS assay. The data set is classed as functional, cell-based. The note with it: NCI-H1975, 72 h.
Data set [11] relates to SK-BR-3. Put plainly: Antiproliferative activity against human SKBR3 cells expressing wild type HER2 incubated for 72 hrs by MTS assay. The data set is classed as functional, cell-based. The note with it: SK-BR-3, 72 h.
Data set [12] can be described thus: Antiproliferative activity against human NCI-H1819 cells expressing wild type HER2 incubated for 72 hrs by MTS assay. The data set is classed as functional, cell-based. The note with it: NCI-H1819, 72 h.
Data set [13] has as its system BT-474. Put plainly: Antiproliferative activity against human BT474 cells expressing wild type HER2 incubated for 72 hrs by MTS assay. The data set is classed as functional, cell-based. The note with it: BT-474, 72 h.
Data set [14] addresses Epidermal growth factor receptor (Homo sapiens, UniProt P00533, L858R/T790M). The data set can be described thus: Inhibition of human EGFR T790M/L858R mutant expressed in mouse Ba/F3 cells. It is filed as cell-based.
Data set [15] has as its target T1, Epidermal growth factor receptor. Put plainly: Inhibition of GST-tagged human EGFR catalytic domain expressed in insect cells.
The target of data set [16] is Epidermal growth factor receptor (Homo sapiens, UniProt P00533, L858R). Put plainly: Inhibition of human EGFR L858R mutant expressed in mouse Ba/F3 cells. The data set is classed as cell-based.
Sequence of Epidermal growth factor receptor (Homo sapiens, UniProt P00533, L858R) (P00533 25-1210 L858R limits assumed): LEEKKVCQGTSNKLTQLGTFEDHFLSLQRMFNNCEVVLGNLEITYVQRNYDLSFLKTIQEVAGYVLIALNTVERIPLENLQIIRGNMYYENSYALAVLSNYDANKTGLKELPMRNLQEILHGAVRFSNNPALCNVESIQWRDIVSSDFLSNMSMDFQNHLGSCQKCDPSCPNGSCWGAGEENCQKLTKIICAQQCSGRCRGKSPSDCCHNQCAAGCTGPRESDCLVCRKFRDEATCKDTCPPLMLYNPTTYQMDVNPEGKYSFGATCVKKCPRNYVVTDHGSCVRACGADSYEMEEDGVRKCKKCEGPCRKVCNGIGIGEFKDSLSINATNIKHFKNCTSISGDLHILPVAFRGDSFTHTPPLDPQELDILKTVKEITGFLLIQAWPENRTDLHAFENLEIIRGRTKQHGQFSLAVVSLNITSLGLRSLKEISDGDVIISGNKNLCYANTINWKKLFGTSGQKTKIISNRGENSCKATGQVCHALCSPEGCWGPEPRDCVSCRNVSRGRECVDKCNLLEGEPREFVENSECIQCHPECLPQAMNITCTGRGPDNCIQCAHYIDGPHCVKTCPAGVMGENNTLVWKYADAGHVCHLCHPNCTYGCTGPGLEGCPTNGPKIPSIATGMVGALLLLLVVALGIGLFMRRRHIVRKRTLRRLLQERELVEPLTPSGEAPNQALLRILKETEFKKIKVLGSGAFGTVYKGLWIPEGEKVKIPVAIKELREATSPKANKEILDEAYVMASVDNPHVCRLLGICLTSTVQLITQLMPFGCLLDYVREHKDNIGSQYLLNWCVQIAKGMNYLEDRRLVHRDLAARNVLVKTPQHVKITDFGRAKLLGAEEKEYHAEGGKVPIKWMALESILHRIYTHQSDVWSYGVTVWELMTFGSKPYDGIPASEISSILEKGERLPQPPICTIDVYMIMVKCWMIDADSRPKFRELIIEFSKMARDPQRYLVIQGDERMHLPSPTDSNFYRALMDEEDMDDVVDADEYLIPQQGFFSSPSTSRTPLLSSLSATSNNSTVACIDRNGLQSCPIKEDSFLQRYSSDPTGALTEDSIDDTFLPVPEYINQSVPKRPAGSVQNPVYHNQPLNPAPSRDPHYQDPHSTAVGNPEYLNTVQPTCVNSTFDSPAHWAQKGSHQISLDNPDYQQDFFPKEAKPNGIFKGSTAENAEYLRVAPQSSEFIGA
In data set [17] the target is Epidermal growth factor receptor (Homo sapiens, UniProt P00533, T790M). The data set can be described thus: Inhibition of human EGFR T790M mutant expressed in mouse Ba/F3 cells. It is filed as cell-based.
Sequence of Epidermal growth factor receptor (Homo sapiens, UniProt P00533, T790M) (P00533 25-1210 T790M limits assumed): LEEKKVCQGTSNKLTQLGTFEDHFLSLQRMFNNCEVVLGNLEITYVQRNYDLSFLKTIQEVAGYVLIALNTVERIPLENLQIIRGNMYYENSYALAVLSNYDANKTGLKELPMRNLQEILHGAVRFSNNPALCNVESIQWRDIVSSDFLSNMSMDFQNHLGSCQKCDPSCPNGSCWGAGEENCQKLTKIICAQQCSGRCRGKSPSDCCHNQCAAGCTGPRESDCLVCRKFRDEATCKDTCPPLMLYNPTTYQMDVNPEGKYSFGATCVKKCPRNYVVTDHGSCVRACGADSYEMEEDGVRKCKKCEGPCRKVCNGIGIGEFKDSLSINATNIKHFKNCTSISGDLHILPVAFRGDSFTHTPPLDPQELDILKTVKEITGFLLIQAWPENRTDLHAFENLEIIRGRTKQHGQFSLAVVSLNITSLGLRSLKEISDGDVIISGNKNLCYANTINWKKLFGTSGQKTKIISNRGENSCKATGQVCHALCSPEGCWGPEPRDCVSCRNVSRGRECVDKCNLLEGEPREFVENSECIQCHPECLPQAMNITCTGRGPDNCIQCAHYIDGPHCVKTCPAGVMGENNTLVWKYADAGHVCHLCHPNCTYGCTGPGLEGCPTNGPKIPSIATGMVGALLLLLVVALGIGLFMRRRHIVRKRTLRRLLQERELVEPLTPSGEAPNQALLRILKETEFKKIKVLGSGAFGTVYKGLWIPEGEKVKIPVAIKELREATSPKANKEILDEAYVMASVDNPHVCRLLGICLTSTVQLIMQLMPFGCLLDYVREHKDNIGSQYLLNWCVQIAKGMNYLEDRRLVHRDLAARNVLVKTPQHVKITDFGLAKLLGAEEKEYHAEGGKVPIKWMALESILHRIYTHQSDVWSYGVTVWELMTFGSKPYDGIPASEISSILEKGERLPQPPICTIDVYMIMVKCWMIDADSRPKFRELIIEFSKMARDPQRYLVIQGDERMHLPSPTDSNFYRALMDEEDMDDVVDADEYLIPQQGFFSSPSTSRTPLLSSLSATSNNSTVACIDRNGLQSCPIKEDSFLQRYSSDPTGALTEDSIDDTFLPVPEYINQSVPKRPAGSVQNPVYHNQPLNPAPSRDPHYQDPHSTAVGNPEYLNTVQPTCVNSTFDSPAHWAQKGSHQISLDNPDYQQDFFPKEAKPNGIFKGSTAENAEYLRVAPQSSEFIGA
Data set [18] deals with MCF7. The data set can be described thus: Antiproliferative activity against human MCF7 cells expressing wild type HER2 incubated for 72 hrs by MTS assay. It is filed as functional, cell-based. The note with it: MCF7, 72 h.
The test system of data set [19] is A549. Put plainly: Antiproliferative activity against human A549 cells. The data set is classed as functional, cell-based.
The test system of data set [20] is NCI-N87. Put plainly: Antiproliferative activity against human NCI-N87 cells expressing wild type EGFR and HER2 incubated for 72 hrs by MTS assay. It is filed as functional, cell-based. The conditions noted are these: NCI-N87, 72 h.

T1 sequence (P00533 whole entry): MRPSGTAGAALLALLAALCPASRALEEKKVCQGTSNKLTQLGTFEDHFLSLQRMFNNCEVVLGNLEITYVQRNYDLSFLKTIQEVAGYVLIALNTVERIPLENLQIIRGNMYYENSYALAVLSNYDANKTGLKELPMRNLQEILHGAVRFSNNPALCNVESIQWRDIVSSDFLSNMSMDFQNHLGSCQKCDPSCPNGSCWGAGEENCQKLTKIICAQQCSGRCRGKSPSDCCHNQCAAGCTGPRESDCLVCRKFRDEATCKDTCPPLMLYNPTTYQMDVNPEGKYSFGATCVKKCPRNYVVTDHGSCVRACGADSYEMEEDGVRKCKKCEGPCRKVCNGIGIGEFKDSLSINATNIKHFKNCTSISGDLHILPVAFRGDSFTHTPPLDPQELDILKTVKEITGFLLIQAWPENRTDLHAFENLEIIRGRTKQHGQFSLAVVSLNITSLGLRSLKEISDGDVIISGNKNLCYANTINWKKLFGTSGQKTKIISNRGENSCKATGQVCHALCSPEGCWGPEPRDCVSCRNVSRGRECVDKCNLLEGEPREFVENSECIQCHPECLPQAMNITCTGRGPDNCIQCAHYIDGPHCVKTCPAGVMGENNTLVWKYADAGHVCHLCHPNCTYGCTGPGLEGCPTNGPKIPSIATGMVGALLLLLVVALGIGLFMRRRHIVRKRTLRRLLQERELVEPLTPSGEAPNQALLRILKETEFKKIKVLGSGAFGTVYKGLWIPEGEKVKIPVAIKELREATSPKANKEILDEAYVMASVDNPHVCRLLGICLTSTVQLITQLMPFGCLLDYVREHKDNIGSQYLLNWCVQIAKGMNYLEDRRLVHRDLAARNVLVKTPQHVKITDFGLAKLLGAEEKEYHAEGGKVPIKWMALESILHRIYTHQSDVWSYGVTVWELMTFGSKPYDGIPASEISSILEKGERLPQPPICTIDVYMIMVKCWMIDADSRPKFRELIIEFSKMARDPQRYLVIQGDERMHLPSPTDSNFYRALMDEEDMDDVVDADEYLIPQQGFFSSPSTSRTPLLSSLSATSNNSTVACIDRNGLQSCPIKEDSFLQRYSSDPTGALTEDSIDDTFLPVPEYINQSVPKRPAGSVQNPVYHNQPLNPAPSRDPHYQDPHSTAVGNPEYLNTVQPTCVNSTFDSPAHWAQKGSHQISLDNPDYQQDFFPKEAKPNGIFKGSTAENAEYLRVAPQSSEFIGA

As to `CC(C)(O)CC(=O)NCCc1ccc2ncnc(Nc3ccc(Oc4cccc(C(F)(F)F)c4)c(Cl)c3)c2c1`, the IC50 is 127 nM in data set [1]; 9.8 nM in data set [2]; 94 nM in data set [3]; 41 nM in data set [4]; 33 nM in data set [5]; 19 nM in data set [6].

On to `C=CC(=O)N1CCC(Oc2cc3c(Nc4ccc(Cl)c(Cl)c4F)ncnc3cc2OC)CC1` [POZIOTINIB], for which the concentration for half-maximal inhibition (IC50) in data set [7] was 0.9 nM; in [8] it was 5.3 nM; in [10], 5.7 nM; in data set [11] it was 1 nM. The compound further had a GI50 at 72 h in data set [9] of 3830 nM.

As to `COc1cc2ncnc(Nc3ccc(F)c(Cl)c3)c2cc1NC(=O)/C=C/CN1CCCCC1` [DACOMITINIB ANHYDROUS], the 50% inhibitory concentration (IC50) in data set [12] was 29 nM; in data set [10] it was 440 nM.

As to `CN(C)C/C=C/C(=O)Nc1cc2c(Nc3ccc(F)c(Cl)c3)ncnc2cc1O[C@@H]1CCOC1`, the figures for the IC50 in data set [10] and in data set [13] were 92 nM and 54 nM, respectively.

In the case of `C=CC(=O)Nc1cc2c(Nc3ccc(F)c(Cl)c3)ncnc2cc1C#CC(C)(C)N1CCN(C)CC1` [AV-412 FREE BASE], the IC50 is 100 nM in data set [7]; 2.3 nM in data set [14]; 1.4 nM in data set [15]; 19 nM in [8]; 0.51 nM in data set [16]; 0.79 nM in data set [17].

With `C=CC(=O)Nc1cc2c(Nc3ccc(F)c(Cl)c3)ncnc2cc1OCCCN1CCOCC1` [CANERTINIB], the IC50 in [10] amounted to 101 nM.

As for `O=C(Nc1ccc2ncnc(Nc3cccc(Br)c3)c2c1)c1ccc(C(F)(F)F)cc1O`, the values for the IC50 in data set [7], in data set [18] and in [19] were 670 nM, 490 nM and 1640 nM, respectively.

As to `CCOc1cc2ncnc(Nc3ccc(OCc4cccc(F)c4)c(Cl)c3)c2cc1NC(=O)/C=C/[C@@H]1CCCN1`, the IC50 in [7] was 62 nM; in data set [20] it was 47 nM; in data set [10], 34 nM.

By IC50 is commonly meant the concentration that gives 50% inhibition. A low value points to higher potency. Broadly, the GI50 is the concentration that inhibits growth by half. Higher therefore signals less potent growth inhibition.
